Results reported in US11844794B2, “Pharmaceutical compositions” (ADEPTIO PHARMACEUTICALS LIMITED, priority 2017, dated 2023).

Legend:
[1] = thermal gravimetric analysis (TGA) / thermal stability
Description: Differential scanning calorimetry (DSC) was carried out on the sample “as is” using a Mettler DSC1 instrument. The sample was weighed I an aluminium pan, covered with a pierced lid, and then crimped and analysed from 30-300° C. at 10° C./minute.
Thermal gravimetric analysis was performed on the sample “as is” using a Mettler 851^e TGA instrument. The sample was weighed in an alumina crucible and analysed from 30-300° C. at 10° C./minute.

[2] = plasma concentrations after oral dosing to human volunteers; assay type: in vivo
Description: (+)-α-Dihydrotetrabenazine in amounts was administered by oral dosing to five human volunteers. In four of the volunteers, blood sample were taken at 30, 60, 120 and 180 minutes after drug administration. Blood samples were not taken from the fifth volunteer. At 60 minutes after drug administration, PET scans were initiated and these were stopped at 120 minutes after drug administration. The experiment was carried out at dosages of 7.5 mg, 15 mg and 22.5 mg.

amphetamine-induced rats = experiment: amphetamine-induced locomotor activity, open field test; assay type: in vivo, rat
Description: All animal experiments were carried out according to the National Institute of Health (NIH) guidelines for the care and use of laboratory animals, and approved by the National Animal Experiment Board, Finland. Male CD (Charles River Laboratories, Germany) at weight range of 200-250 g (165-200 g upon arrival) were used for the experiments. Animals were housed at a standard temperature (22±1° C.) and in a light-controlled environment (lights on from 7 am to 8 pm) with ad libitum access to food and water.
Locomotor activity of the rats was tested in open field arena. The open field test was performed during the rat light cycle and under a normal lighting evenly distributed to the test chambers. The paths of the rats were recorded by activity monitor (Med. Associates Inc.).
Dosing the vehicle, vehicle-amphetamine, (+)-α-DHTBZ or risperidone was done prior to LMA test. The rats were placed in the centre of the arena, and the path was recorded for 60 minutes.
Animals were grouped as follows: • Group 1: 10 rats treated with Vehicle (t=0 min) and Vehicle (t=30 min) • Group 2: 10 rats treated with Vehicle (t=0 min) and Amphetamine (t=30 min) • Group 3: 10 rats treated with (+)-α-DHTBZ 0.5 mg/kg (t=0 min) and Amphetamine (t=30 min) • Group 4: 10 rats treated with (+)-α-DHTBZ 1 mg/kg (t=0 min) and Amphetamine (t=30 min) • Group 5: 10 rats treated with (+)-α-DHTBZ 1.5 mg/kg (t=0 min) and Amphetamine (t=30 min) • Group 6: 10 rats treated with (+)-α-DHTBZ 2 mg/kg (t=0 min) and Amphetamine (t=30 min) • Group 7: 10 rats treated with risperidone 1 mg/kg (t=0 min) and Amphetamine (t=30 min)
(§1) Rats dosed with either vehicle, (+)-α-DHTBZ 0.5 mg/kg, (+)-α-DHTBZ 1 mg/kg, (+)-α-DHTBZ 1.5 mg/kg, (+)-α-DHTBZ 2 mg/kg or Risperidone 1 mg/kg were subjected to LMA testing first for 30 min and then for 60 minutes after vehicle or amphetamine challenge. Resulting locomotor activity was evaluated in 3 min bins and as a total over the testing period.
as §1, with “stereotypic” for “locomotor”, “period. […]” for “period.”

[3] = Study 1, all the tested doses (0.5, 1, 1.5 and 2 mg/kg)

With `COc1cc2c(cc1OC)[C@H]1C[C@@H](O)[C@H](CC(C)C)CN1CC2.O=C(O)CCC(=O)O` [(+)-α-dihydrotetrabenazine succinate] the TGA weight loss ([1]; below 150° C.) was “No weight loss” and the thermal stability ([1]; from DSC and TGA) was “good thermal stability”.

Work on `COc1cc2c(cc1OC)[C@H]1C[C@@H](O)[C@H](CC(C)C)CN1CC2` [(+)-α-dihydrotetrabenazine, (2R,3R,11bR)-3-isobutyl-9,10-dimethoxy-1,3,4,6,7,11b-hexahydro-2H-pyrido[2,1,a]isoquinolin-2-01] yielded a concentration at 1 h ([2]; human, plasma, subject 1 (112 kg), 7.5 mg oral) of 0.94 ng/mL, a concentration at 1 h ([2]; human, plasma, subject 1 (112 kg), 22.5 mg oral) of 18 ng/mL and a concentration at 2 h ([2]; human, plasma, subject 2 (76 kg), 7.5 mg oral) of 14 ng/mL. For the same compound, the concentration at 0.5 h ([2]; human, plasma, subject 3 (129 kg), 15 mg oral, 0.5 h) was 1.2 ng/mL, the concentration at 2 h ([2]; human, plasma, subject 3 (129 kg), 15 mg oral) was 12 ng/mL and the “plasma concentration of (+)-α-dihydrotetrabenazine” value ([2]; subject 1 (112 kg), 7.5 mg oral, 0.5 h, BLQ = below level of quantitation) was “BLQ”. The “total stereotypic behaviour compared to vehicle-vehicle group” value (amphetamine-induced rats; Study 1, 0.5 mg/kg plus amphetamine, male CD rats) was “significantly different”, the “total stereotypic behaviour compared to vehicle-amphetamine group” value (amphetamine-induced rats; Study 1, 0.5 mg/kg, male CD rats) was “significantly different” and the “total stereotypic behaviour compared to vehicle-amphetamine group” value (amphetamine-induced rats; Study 1, 1 mg/kg, male CD rats) was “significantly different”. The “total stereotypic behaviour compared to vehicle-vehicle group” value (amphetamine-induced rats; Study 1, 1.5 mg/kg plus amphetamine, male CD rats) was “significantly different”, the “total stereotypic behaviour compared to vehicle-amphetamine group” value (amphetamine-induced rats; Study 1, 1.5 mg/kg, male CD rats) was “significantly different” and the “total stereotypic behaviour compared to vehicle-amphetamine group” value (amphetamine-induced rats; Study 1, 2 mg/kg, male CD rats) was “significantly different”. For the same compound, the “locomotor activity compared to vehicle-amphetamine group” value (amphetamine-induced rats; [3]) was “lower locomotor activity”, the “stereotypic behaviour compared to vehicle-amphetamine group” value (amphetamine-induced rats; [3]) was “reduced stereotypic behaviour” and the “effect suggested by both measured parameters” value (amphetamine-induced rats; Study 1, locomotor activity and stereotypic behaviour) was “sedative effect similar to risperidone”. For the same compound, the “total stereotypic behaviour compared to vehicle-amphetamine group” value (amphetamine-induced rats; Study 2, 0.1 mg/kg, male CD rats) was “significantly different”, the “total stereotypic behaviour compared to vehicle-amphetamine group” value (amphetamine-induced rats; Study 2, 0.25 mg/kg, male CD rats) was “significantly different” and the “total distance travelled compared to vehicle-amphetamine group” value (amphetamine-induced rats; Study 2, 0.25 mg/kg, male CD rats, listed as (+)-α-DHTBZ) was “lower locomotor activity”. The “stereotypic behaviour compared to vehicle-amphetamine group” value (amphetamine-induced rats; Study 2, both the tested doses (0.1 and 0.25 mg/kg)) was “reduced stereotypic behaviour”.
